The record followed here is article PMC8190279, “Spatiotemporal imaging and pharmacokinetics of fluorescent compounds in zebrafish eleuthero-embryos after different routes of administration” (Scientific Reports, 2021).

By LogD is commonly meant lipophilicity at a set pH, counting ionised and neutral species. High values mean a more lipophilic compound, low ones a more hydrophilic compound.

For series [1], the system named is 3 dpf zebrafish eleuthero-embryos. The experiment in a line: Whole-body fluorescence quantification and 1-compartment PK modelling. The series is classed as in vivo, Danio rerio. Particulars: for ke (total elimination rate constant): 1-compartment model fitted to all routes (immersion 10 µM, PC/IP 2 mg/kg, combination), 0-48 h; for Q (passive exchange with the medium) / t1/2 (elimination half-life, ln(2)/ke): 1-compartment model, zebrafish eleuthero-embryo; for Comparison of passive exchange with the medium (Q) among compounds: ranking in words. An excerpt:
We then quantified the relative amount of compound present in the zebrafish eleuthero-embryos by assessing the integrated fluorescence intensity of delineated whole-body contours present in the fluorescence images (Figs. 1, 2, 3, 4, 5, 6, 7).
The total measured fluorescence was proportional to total amount of compound present in the animal, as described by Eq. (1). RFUT denotes the sum of fluorescence intensity in the overall image, A denotes the amount of drug in the zebrafish, and FLUOR is a constant denoting the compound-specific fluorescence quantum yield.1 RFUT=FLUOR∗A
Simplifying by substitution of ke=Q+CL/V :3 dA/dt=-ke∗A+QM
Next, data fitting was performed with the following mathematical model:4 At=Dose∗e^-ket+MQ/ke(1-e^-ket) with Dose the injected dose (mg/kg), M the concentration in the medium (mg/L), Q the passive exchange with the medium (L/h) and ke the total elimination rate constant (h^−1). When administering the compound through immersion, the injected dose is 0 mg/kg. When injecting the compound, the concentration in medium is 0. This model was fitted to all available data using non-linear regression in R version 4.0.3.
Residual error plots were used to identify observations with poor fit.
The designed model was optimized by a non-linear least squares modelling, using Gauss–Newton algorithms under the method of iterative fashion, with R version 4.0.3, using stats::nls[50].

Series [2] can be described thus: Experimental lipophilicity (LogD), shake-flask method with UHPLC. Particulars: n-octanol / Danieau's solution, 10 µM compound.
Procedure: Briefly, 10 µM of compound was shaken in a mixture of two mobile phases, n-octanol and Danieau’s solution (eleuthero-embryo medium) and analysed with UHPLC.
The lipophilicity of the fluorescent compounds was determined following the EPA guideline OPPTS 830.7550 Partition coefficient (shake flask method)[46] using Danieau’s solution and n-octanol as the two immiscible phases. Analyses were performed using an Agilent Infinity 1290 UHPLC system (Agilent Technologies, Waldbronn, Germany) consisting of an autosampler, quaternary pump and DAD-detector, operated with Open Lab software (version C.01.10, Agilent Technologies). […] All compounds were detected and quantified at 390 nm. For the quantification of the compounds, calibration samples were made in 50:50 ACN:MilliQ water for the compounds analysed in RPLC and 95:5 ACN:MilliQ water for compounds analysed in HILIC. […] The variation (calculated as the relative standard deviation, %RSD) for 3 injections was always below 10% (for all considered concentrations) and R^2 values of the calibration curves were all above 0.998. All calculations concerning the evaluation of the recorded data were made in MS Excel (Microsoft Corporation, Seattle, USA). […]
Series [3] has as its system 3 dpf zebrafish eleuthero-embryos. Put plainly: Spatiotemporal fluorescence imaging after immersion, microinjection (PC, IP, IY) or combination. Type of series: in vivo, Danio rerio. Here is the method:
We then determined the spatiotemporal distribution of the fluorescent compounds. The eleuthero-embryos were exposed to the dyes by immersion or microinjection in the pericardial cavity (PC), intraperitoneally (IP) and in the yolk sac (IY) for 48 h starting from 3 dpf on, i.e. after hatching, thus avoiding the presence of the chorion that has been reported as a potential barrier for the absorption of compounds[21],[27].
At specific time periods after treatment, the eleuthero-embryos were immobilized by hypothermia and fluorescent microscope pictures were taken.
3 dpf zebrafish eleuthero-embryos wildtype AB (n = 10 per compound) randomly selected were immersed using 6-well-plates (5 mL per well) of Danieau’s medium with a final DMSO concentration of 0.1% (v/v), containing the compounds at a concentration of 10 µM. Vehicle-treated control eleuthero-embryos were exposed to Danieau’s medium supplemented with 0.1% v/v DMSO.
3 dpf zebrafish eleuthero-embryos wildtype AB (n = 10 per compound) randomly selected were immobilized by cooling to 4 °C and positioned on 1% (w/v) agarose plates at room temperature. All compounds were microinjected using glass needles fitted to a micromanipulator (MM-33) connected to a gas pressure microinjector (Eppendorf Femtojet set - AG 22331 Hamburg). Glass capillaries (W/FIL 1.0MM 4 in TW 100F-4) were pulled (Sutter Instrument CO. Model P-87 Cat N B100-58-15 Filament: FB330B – FB320B) by using program 5 (Heat 829, Pull 158, Vel 100, Time 150). Needles were filled with compounds dissolved in vehicle (DMSO/saline (1:1)). Microinjections were performed into the pericardial cavity (PC)[47], into the yolk sac (IY)[35], or into the peritoneal cavity (IP) at a volume of 1 nL and a dose of 2 mg/kg. For the intraperitoneal microinjection, the eleuthero-embryos were positioned in lateral right recumbence under a dissecting microscope. By using a micromanipulator, the needle was inserted posteriorly and ventrolateral to the swim bladder in the peritoneal cavity. Afterwards the eleuthero-embryos were transferred to 6-well plates. Control eleuthero-embryos were exposed to vehicle only.
3 dpf zebrafish eleuthero-embryos wildtype AB (n = 10 per compound) randomly selected were immobilized and positioned on 1% (w/v) agarose plates. All compounds were microinjected using glass needles, as previously described into the PC cavity. Afterwards, the larvae were selected and transferred to a 6-well-plate, into its corresponding compound at 10 µM.
The thus-treated eleuthero-embryos were kept in the incubator at 28.5 °C (in darkness) and taken out shortly at defined time points (15’, 1 h, 3 h, 6 h, 24 h and 48 h) for image analysis.
Eleuthero-embryos were immobilized by hypothermia, rinsed three times with Danieau’s medium, and positioned latero-lateral (right lateral recumbency) in a drop of agarose (0.1%). To acquire images, a Leica MZ10F fluorescent stereomicroscope with a 4.0 × planapochromatic objective (10447243) was used, equipped with a Digital Color Camera Leica DFC310 FX (Software LAS 4.13). Filter sets were GFP 10446222 in case of compound FAMA, dSRED 10447079 in case of S-CY3A, CY3A and TAMRA, and CY5 10446366 in case of S-CY5.5A and S-CY5A. After manual delineation of the whole body (WB) contours of the zebrafish eleuthero-embryos using MetaMorph (Microscopy Automation & Image Analysis Software V.7.8.00), the fluorescence in the selected area was quantified as integrated fluorescence intensity (RFU) that adds up all fluorescence intensity values of the individual pixels. In case of the combination treatment the same correction factor for exposure time from the camera setting was applied in the case of FAMA and TAMRA, to avoid saturation of the images (Supplementary information. Figure S1)[48]. The selected images shown in the Figs. 1, 2, 3, 4, 5, 6 and 7 were arranged using MS PowerPoint (Microsoft Corporation, Seattle, USA) and the open-source GIMP (version 2.10.24 www.gimp.org 2021) software. […]

For `C#CCNC(=O)c1ccc(-c2c3ccc(=[N+](C)C)cc-3oc3cc(N(C)C)ccc23)c(C(=O)[O-])c1` (single isomer, unassigned) [TAMRA, Tamra alkyne 5-isomer], in series [1], the “ke (total elimination rate constant)” value came out at 0.052 h⁻¹; the “Q (passive exchange with the medium)” value was found to be 1.45 L/h × 10^−9; the “t1/2 (elimination half-life, ln(2)/ke)” value amounted to 13.35 h. Besides, in series [2], the LogD was 0.46. In series [3] (PC microinjection 2 mg/kg), the “Intra-fish distribution after pericardial (PC) microinjection” value (shortened to “Intra-fish distribution”) is recorded as “rapidly distributed to the vasculature”. Also, the “Level and intra-body fluorescence distribution at 48 h, combination (immersion + PC) compared with PC microinjection” value in series [3] (immersion 10 µM + PC 2 mg/kg, 48 h) is recorded as “altered”. Moreover, in series [3] (immersion 10 µM, 0-48 h from 3 dpf), the “Uptake after immersion (fluorescence imaging)” value is listed as “gradually taken up over time”.

On to `C#CCNC(=O)CCCCCN1C(=CC=CC2=[N+](C)c3ccccc3C2(C)C)C(C)(C)c2ccccc21.[Cl-]` [CY3A, Cyanine3 alkyne], for which, in series [1], the “ke (total elimination rate constant)” value came to 0.049 h⁻¹; the “Q (passive exchange with the medium)” value is listed as 8.37 L/h × 10^−9; the “t1/2 (elimination half-life, ln(2)/ke)” value was 13.92 h; the “Comparison of passive exchange with the medium (Q) among compounds” value is given as “taken up the fastest”. Further, the “Additional effect of immersion route on intrabody exposure in combination treatment (RC3h)” value in series [1] (3 h exposure, immersion 10 µM + PC 2 mg/kg) is reported as “to a limited degree”. The compound also showed a LogD in series [2] of 1.73. The “Level and intra-body fluorescence distribution at 48 h, combination (immersion + PC) compared with PC microinjection” value in series [3] (in vivo) is “altered”.

Take `C#CCNC(=O)c1ccc2c(c1)C(=O)OC21c2ccc(O)cc2Oc2cc(O)ccc21` [FAMA, FAM alkyne, 5-isomer]: in series [1], the “Q (passive exchange with the medium)” value was determined as 1.71 L/h × 10^−9 and the “t1/2 (elimination half-life, ln(2)/ke)” value was 57.41 h. Also, the “Intra-fish distribution” value in series [3] (in vivo) is “rapidly distributed to the vasculature”.

Consider `C#CCNC(=O)CCCCCN1/C(=C/C=C/C=C/C2=[N+](C)c3ccc4c(S(=O)(=O)[O-])cc(S(=O)(=O)[O-])cc4c3C2(C)C)C(C)(C)c2c1ccc1c(S(=O)(=O)[O-])cc(S(=O)(=O)[O-])cc21.[K+].[K+].[K+]` [S-CY5.5A, Sulfo-cyanine 5.5 alkyne], for which, in series [1], the “ke (total elimination rate constant)” value amounted to 0.023 h⁻¹; the “Q (passive exchange with the medium)” value was found to be 0.34 L/h × 10^−9; the “t1/2 (elimination half-life, ln(2)/ke)” value is listed as 30.26 h; the “Comparison of passive exchange with the medium (Q) among compounds” value is reported as “slowest one to be exchanged”. In addition, the “Intra-fish distribution” value in series [3] (in vivo) is recorded as “rapidly distributed to the vasculature”.

Consider Sulfo-cyanine 3 alkyne [S-CY3A], for which, in series [1], the “ke (total elimination rate constant)” value came to 0.012 h⁻¹; the “Q (passive exchange with the medium)” value amounted to 0.23 L/h × 10^−9; the “t1/2 (elimination half-life, ln(2)/ke)” value worked out at 57.40 h. Besides, the “Intra-fish distribution” value in series [3] (in vivo) is “rapidly distributed to the vasculature”.

For the compound Sulfo-cyanine 5 alkyne [S-CY5A], in series [1], the “ke (total elimination rate constant)” value was 0.014 h⁻¹; the “Q (passive exchange with the medium)” value was found to be 1.61 L/h × 10^−9; the “t1/2 (elimination half-life, ln(2)/ke)” value was 50.41 h. In addition, in series [3] (in vivo), the “Intra-fish distribution” value was “rapidly distributed to the vasculature”; the “Level and intra-body fluorescence distribution at 48 h, combination (immersion + PC) compared with PC microinjection” value was “altered”.
